{
  "source": "patent US8512965B2",
  "about": "“Methods of identifying ligands to sour-taste receptors comprising PKD1L3 and PKDPKD2L1” (Duke University, priority 2006, dated 2013)",
  "key": {"[1]": {"molecular_target": "T1, PKD1L3/PKD2L1 (Mus musculus, UniProt A2A259+Q2EG98, I1053S/I114V/I482V/L203V/Q202H/Y438D)", "T1 construct": "HA (N); expressed in transfected cells; host or cells: HEK293T", "T1 sequence (Q2EG98 21-2151 I1053S)": "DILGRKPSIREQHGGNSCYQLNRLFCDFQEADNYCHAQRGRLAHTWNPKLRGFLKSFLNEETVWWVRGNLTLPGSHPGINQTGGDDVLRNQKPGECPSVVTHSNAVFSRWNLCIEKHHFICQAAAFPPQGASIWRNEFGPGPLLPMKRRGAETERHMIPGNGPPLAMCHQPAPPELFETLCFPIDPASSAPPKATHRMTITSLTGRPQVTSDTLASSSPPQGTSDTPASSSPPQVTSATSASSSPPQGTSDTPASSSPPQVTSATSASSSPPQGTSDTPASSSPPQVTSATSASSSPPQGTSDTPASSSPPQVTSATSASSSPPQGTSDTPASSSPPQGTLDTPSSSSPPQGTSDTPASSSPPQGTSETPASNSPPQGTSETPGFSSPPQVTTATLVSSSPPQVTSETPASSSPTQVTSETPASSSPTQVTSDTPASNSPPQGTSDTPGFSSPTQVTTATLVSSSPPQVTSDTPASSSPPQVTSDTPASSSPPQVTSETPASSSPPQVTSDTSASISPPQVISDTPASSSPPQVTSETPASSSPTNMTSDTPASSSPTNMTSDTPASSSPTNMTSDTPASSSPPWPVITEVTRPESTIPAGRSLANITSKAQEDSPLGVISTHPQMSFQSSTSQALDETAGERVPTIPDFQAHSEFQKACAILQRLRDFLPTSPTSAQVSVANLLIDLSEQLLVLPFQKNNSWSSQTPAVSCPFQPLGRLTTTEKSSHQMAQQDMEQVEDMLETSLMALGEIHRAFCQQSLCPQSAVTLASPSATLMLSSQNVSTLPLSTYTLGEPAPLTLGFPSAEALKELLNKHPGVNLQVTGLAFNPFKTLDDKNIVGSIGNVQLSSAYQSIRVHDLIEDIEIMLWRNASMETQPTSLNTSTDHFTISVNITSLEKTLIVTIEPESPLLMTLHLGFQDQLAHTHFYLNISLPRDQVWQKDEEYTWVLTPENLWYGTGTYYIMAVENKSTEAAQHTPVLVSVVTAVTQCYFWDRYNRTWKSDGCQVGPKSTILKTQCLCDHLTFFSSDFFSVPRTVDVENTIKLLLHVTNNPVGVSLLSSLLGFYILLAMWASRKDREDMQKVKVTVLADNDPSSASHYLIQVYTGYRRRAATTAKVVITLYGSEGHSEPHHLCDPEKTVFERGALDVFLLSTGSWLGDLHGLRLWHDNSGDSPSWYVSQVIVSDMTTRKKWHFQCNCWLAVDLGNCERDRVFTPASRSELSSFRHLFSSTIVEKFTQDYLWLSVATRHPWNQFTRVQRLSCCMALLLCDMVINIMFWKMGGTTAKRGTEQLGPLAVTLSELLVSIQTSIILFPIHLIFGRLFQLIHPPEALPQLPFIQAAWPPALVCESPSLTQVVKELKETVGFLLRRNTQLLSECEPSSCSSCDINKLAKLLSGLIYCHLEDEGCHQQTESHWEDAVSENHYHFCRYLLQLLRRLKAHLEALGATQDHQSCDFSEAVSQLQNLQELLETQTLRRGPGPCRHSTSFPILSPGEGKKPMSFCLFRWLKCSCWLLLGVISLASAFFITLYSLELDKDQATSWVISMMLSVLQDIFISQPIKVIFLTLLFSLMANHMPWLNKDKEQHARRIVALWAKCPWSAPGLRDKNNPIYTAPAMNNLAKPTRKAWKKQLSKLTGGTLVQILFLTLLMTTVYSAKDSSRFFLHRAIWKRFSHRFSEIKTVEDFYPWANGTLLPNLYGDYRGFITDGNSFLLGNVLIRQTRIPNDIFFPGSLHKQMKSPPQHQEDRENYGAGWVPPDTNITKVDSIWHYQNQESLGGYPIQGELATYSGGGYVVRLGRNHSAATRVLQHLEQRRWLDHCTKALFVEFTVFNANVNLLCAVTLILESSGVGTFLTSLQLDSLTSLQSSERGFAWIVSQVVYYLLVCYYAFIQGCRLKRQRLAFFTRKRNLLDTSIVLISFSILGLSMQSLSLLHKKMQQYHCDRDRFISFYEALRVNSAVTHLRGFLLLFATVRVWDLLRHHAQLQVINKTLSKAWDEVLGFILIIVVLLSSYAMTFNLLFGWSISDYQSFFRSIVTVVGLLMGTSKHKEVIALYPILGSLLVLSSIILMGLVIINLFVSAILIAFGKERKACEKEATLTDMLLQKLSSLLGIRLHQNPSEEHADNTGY", "T1 sequence (A2A259 whole entry I114V/Q202H/L203V/Y438D/I482V)": "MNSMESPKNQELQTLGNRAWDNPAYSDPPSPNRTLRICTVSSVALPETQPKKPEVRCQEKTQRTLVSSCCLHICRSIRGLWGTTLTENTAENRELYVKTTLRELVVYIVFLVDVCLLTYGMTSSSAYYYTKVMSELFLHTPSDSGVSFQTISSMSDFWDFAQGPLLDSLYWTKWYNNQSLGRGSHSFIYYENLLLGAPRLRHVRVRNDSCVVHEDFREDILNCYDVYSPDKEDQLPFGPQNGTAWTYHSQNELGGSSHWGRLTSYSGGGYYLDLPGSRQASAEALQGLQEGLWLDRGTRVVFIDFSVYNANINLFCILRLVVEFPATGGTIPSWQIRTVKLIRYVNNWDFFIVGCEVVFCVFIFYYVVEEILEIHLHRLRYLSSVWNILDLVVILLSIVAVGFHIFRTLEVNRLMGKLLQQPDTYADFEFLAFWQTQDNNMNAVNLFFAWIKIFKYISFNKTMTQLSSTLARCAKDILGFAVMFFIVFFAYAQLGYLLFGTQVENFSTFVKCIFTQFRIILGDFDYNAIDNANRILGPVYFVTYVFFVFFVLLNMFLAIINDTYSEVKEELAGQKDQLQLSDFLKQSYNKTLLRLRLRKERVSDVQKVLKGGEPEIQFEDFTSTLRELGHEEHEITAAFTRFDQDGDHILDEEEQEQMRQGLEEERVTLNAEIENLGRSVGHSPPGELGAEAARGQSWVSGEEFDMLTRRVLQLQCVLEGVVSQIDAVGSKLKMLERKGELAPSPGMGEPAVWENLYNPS", "assay": "Calcium imaging (fluo-4/fura-red) of HEK293T cells transiently co-expressing PKD1L3 and PKD2L1", "assay_type": "cell-based, murine", "settings": "for calcium response upon stimulation: pH 2.6"}, "[2]": {"test_system": "either PKD1L3 or PKD2L1, or neither of them", "assay": "Calcium imaging of HEK293T cells expressing PKD1L3 or PKD2L1 alone, or neither", "assay_type": "cell-based, murine", "settings": "treated with citric acid"}, "[3]": {"test_system": "taste cells", "settings": "cited from earlier work"}, "[4]": {"settings": "at the same pH (Ganzevles and Kroeze, 1987; Makhlouf and Bum, 1972); cited from earlier work"}, "[5]": {"settings": "cells expressing both PKD1L3 and PKD2L1, citric acid 25 mM, hydrochloric acid at the same pH"}},
  "data": [
    {"compound": "O=C(O)CC(O)(CC(=O)O)C(=O)O", "note": "[citric acid]", "values": [
      {"measurement": "potency in activating PKD1L3/PKD2L1 heteromers relative to hydrochloric acid", "setting": "[1]; at the same pH", "result": "more potent than hydrochloric acid"},
      {"measurement": "calcium response upon stimulation", "setting": "[1]; [5]", "result": "responded"},
      {"measurement": "calcium response with extracellular calcium ions eliminated from the bath solution", "setting": "[1]; cells expressing both proteins, no extracellular calcium", "result": "abolished"},
      {"measurement": "calcium response upon stimulation", "setting": "[2]", "result": "little or no calcium response"},
      {"measurement": "taste cells activated", "setting": "[3]; calcium imaging of taste bud slices (Caicedo et al., 2002; Richter et al., 2003)", "result": "23-25%"},
      {"measurement": "potency as sour ligand relative to hydrochloric acid", "setting": "[3]; mouse taste tissue slices, same pH (Richter et al., 2003)", "result": "more potent sour ligand than hydrochloric acid"},
      {"measurement": "sour taste relative to hydrochloric acid", "setting": "[4]", "result": "more sour than hydrochloric acid"}
    ]},
    {"compound": "CC(=O)O", "note": "[acetic acid]", "values": [
      {"measurement": "sour taste relative to hydrochloric acid", "setting": "[4]", "result": "more sour than hydrochloric acid"}
    ]},
    {"compound": "O=C1NS(=O)(=O)c2ccccc21", "note": "[saccharin]", "values": [
      {"measurement": "calcium response upon stimulation", "setting": "[1]; [5]", "result": "did not respond"}
    ]},
    {"compound": "N=C(N)NC(=O)c1nc(Cl)c(N)nc1N", "note": "[amiloride]", "values": [
      {"measurement": "inhibition of function of the two protein heteromer", "setting": "[1]; ASIC inhibitor / HCN inhibitor applied", "result": "not inhibited"}
    ]},
    {"compound": "C=C[C@H]1C[N@@]2CC[C@H]1C[C@H]2[C@H](O)c1ccnc2ccc(OC)cc12", "note": "[quinine]", "values": [
      {"measurement": "calcium response upon stimulation", "setting": "[1]; [5]", "result": "did not respond"}
    ]},
    {"compound": "C[C@@H]1C[C@@H]([C@H](O)CC2CC(=O)NC(=O)C2)C(=O)[C@@H](C)C1", "note": "[cyclohexamide]", "values": [
      {"measurement": "calcium response upon stimulation", "setting": "[1]", "result": "did not respond"}
    ]},
    {"compound": "OC[C@H]1O[C@@](CO)(O[C@H]2O[C@H](CO)[C@@H](O)[C@H](O)[C@H]2O)[C@@H](O)[C@@H]1O", "note": "[sucrose]", "values": [
      {"measurement": "calcium response upon stimulation", "setting": "[1]; [5]", "result": "did not respond"}
    ]},
    {"compound": "Cl", "note": "[hydrochloric acid]", "values": [
      {"measurement": "calcium response upon stimulation", "setting": "[1]", "result": "much less of a calcium response"}
    ]},
    {"compound": "[Cl-].[Na+]", "note": "[NaCl]", "values": [
      {"measurement": "calcium response upon stimulation", "setting": "[1]", "result": "did not respond"}
    ]}
  ]
}
